Laboratory results as given in paper PMC3688963, “Biochemical Characterization of Hypothetical Proteins from Helicobacter pylori” (PLoS ONE, 2013).

Molecular target: T1, HP1079 (Helicobacter pylori, UniProt O25711)
T1 construct: gene HP_1079; native protein captured with GTP-coated nano-particles; His6 recombinant also made
T1 sequence (O25711 1-370): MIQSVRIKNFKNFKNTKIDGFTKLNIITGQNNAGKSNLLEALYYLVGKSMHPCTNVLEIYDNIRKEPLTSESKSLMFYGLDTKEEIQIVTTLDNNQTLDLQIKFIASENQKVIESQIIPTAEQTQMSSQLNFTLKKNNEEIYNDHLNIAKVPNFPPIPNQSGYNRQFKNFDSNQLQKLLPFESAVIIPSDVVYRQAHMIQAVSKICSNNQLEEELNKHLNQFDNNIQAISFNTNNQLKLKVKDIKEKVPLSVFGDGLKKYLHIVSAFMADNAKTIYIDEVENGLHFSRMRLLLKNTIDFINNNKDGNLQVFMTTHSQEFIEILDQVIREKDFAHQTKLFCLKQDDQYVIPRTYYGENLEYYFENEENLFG
Experiment: phosphate release, malachite green
Assay type: biochemical
Settings: 10 mM MgCl2, 10% glycerol, 100 mM sodium acetate pH 6.0, 30°C; read-out: Km (mM)^bc
Excerpt: phosphate release, malachite green on HP1079

For Nc1ncnc2c1ncn2[C@@H]1O[C@H](COP(=O)(O)OP(=O)(O)OP(=O)(O)O)[C@@H](O)[C@H]1O [ATP], the Km was 1.02 ± 0.05 mM.
